Source: patent US20220235064A1 (WELLMARKER BIO CO., LTD., priority 2019, published 2022)

Columns and labels:
[1] = test system: cancer cell line KM12C, in which RON is activated; experiment: Cell growth inhibitory ability in RON-activated cancer cell line (MTS); format: cell-based; conditions: Homo sapiens, 48 hours, absorbance 490 nm
In short: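 KM12C cells (RON-activated, MEM with FBS) exposed to compound […] for 48 h. MTS added 24 h after treatment ended, incubated 4 h at 37° C, absorbance read at 490 nm. IC50 derived from absorbance.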

RON tyrosine kinase = biological target: T1, RON tyrosine kinase (Homo sapiens, UniProt Q04912); experiment: Enzyme inhibitory activity against RON tyrosine kinase (TR-FRET); format: biochemical; conditions: RON (Carna Bioscience)
T1 construct: purchased Carna Bioscience
T1 sequence (Q04912 25-1400): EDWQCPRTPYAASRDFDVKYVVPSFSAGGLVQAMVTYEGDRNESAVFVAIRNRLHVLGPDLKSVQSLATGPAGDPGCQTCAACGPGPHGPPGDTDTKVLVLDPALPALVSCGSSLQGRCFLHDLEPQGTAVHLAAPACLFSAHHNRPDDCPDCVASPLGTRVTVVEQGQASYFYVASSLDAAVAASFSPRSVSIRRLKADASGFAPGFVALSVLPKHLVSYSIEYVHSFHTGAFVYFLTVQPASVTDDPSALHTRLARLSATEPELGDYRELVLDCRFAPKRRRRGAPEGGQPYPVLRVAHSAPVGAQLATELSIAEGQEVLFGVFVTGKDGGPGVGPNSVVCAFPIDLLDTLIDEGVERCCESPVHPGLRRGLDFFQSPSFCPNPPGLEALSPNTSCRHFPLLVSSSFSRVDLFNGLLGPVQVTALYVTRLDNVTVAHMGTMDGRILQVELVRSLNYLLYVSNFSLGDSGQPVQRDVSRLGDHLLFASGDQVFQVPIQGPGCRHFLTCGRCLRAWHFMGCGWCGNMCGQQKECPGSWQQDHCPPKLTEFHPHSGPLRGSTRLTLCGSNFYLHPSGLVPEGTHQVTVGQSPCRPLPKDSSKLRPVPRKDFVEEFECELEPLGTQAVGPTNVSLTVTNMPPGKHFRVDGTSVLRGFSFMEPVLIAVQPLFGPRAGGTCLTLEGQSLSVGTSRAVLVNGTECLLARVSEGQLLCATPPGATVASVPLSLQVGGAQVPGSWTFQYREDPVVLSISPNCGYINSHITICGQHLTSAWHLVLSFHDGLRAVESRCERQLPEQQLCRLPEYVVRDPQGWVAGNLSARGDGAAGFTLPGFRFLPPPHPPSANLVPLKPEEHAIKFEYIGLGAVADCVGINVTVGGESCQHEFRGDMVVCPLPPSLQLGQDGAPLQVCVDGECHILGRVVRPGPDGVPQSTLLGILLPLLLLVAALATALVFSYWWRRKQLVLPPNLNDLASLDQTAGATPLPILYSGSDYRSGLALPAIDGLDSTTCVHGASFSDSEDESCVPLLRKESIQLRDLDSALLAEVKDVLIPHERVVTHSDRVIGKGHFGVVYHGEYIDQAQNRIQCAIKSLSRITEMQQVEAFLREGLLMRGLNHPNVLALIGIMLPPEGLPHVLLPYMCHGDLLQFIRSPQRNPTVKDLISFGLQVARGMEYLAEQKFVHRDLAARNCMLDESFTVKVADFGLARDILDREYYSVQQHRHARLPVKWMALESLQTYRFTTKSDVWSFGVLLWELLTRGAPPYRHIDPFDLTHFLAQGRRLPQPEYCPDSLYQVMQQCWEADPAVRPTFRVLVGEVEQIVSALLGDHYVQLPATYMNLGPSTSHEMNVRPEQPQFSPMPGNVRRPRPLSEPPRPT
In short: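 Recombinant RON was preincubated with compound for 15 min at RT in 50 mM HEPES pH 7.5, 10 mM MgCl2, 1 mM EGTA, 2 mM DTT, 0.01% Tween-20. Enzyme (0.4 nM), ATP (60 μM) and tyrosine peptide (400 nM) were prepared at 2×, 4× and 4× final. After 60 min at RT, EDTA/Eu-anti-phosphotyrosine stop; IC50 from 665 nm TR-FRET emission.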

[2] = test system: cancer cell line HT29, in which mutated RON (Δ160) is expressed; experiment: Cell-killing efficacy in RON-mutated cancer cell line HT29 (trypan blue); format: cell-based; conditions: for cytotoxicity at 1 µM / cytotoxicity at 5 µM: Homo sapiens, HT-29, 48 hours, trypan blue, n=2, read-out: Cell death (%) Cancer cell line HT29; for cell-killing effect (in words): HT29, as compared with the positive control
Method: (§1) Experimental Example 4: Measurement of Cell-Killing Efficacy of Example Compounds in RON-Mutated Cancer Cell Lines
(§2) Each of two colorectal cancer cell lines, that is, the cancer cell line HT29 (30038, KCLB, RPMI+10% FBS), in which mutated RON (Δ160) is expressed, and the cancer cell line SW620 (CCL-227, ATCC, RPMI+10% FBS), in which mutated RON (Δ155) is expressed, was dispensed into each 60 mm^2 dish at 1×10^5 cells. After 24 hours, the dish was treated with each of the example compounds at a concentration of 1 μM or 5 μM while performing medium exchange, and then reaction was allowed to proceed for 48 hours. After 48 hours, centrifugation was performed for 4 minutes at 1,500 rpm to collect cells and cell fluid. Thereafter, living cells and dead cells were quantified (n=2) using a trypan blue solution (15250-061, Gibco), and statistical analysis was performed using Excel-T-test. Here, as a negative control, only a solvent (0.10% DMSO) was used; and as a positive control, N-(4-(2-amino-3-chloropyridin-4-yloxy)-3-fluorophenyl)-4-ethoxy-1-(4-fluorophenyl)-2-oxo-1,2-dihydropyridine-3-carboxamide, which is the compound of Example 1 in WO 2008/058229 A1, was used.

[3] = test system: cancer cell line SW620, in which mutated RON (Δ155) is expressed; experiment: Cell-killing efficacy in RON-mutated cancer cell line SW620 (trypan blue); format: cell-based; conditions: for cytotoxicity at 1 µM / cytotoxicity at 5 µM: Homo sapiens, SW-620, 48 hours, trypan blue, n=2, read-out: Cell death (%) Cancer cell line SW620; for cell-killing effect (in words): SW620, as compared with the positive control
Method: as §1, §2

[4] = test system: cancer cell line KM12C, in which RON is activated; experiment: Cell-killing efficacy in RON-activated cancer cell line (trypan blue); format: cell-based; conditions: for cytotoxicity at 1 µM / cytotoxicity at 5 µM: Homo sapiens, 48 hours, trypan blue, n=2, read-out: Cell death (%) Cancer cell line KM12C; for cell-killing effect (in words): as compared with the positive control
In short: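 KM12C cells seeded 1×10^5 per 60 mm^2 dish in MEM + 10% FBS, then exposed 24 h later to compound at 1 μM or 5 μM for 48 h.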

SMILES	IC50 [1] [nM]	IC50 (RON tyrosine kinase) [nM]	cytotoxicity at 1 µM [2] [%]	cytotoxicity at 5 µM [2] [%]	cytotoxicity at 1 µM [3] [%]	cytotoxicity at 5 µM [3] [%]	cytotoxicity at 1 µM [4] [%]	cytotoxicity at 5 µM [4] [%]	cell-killing effect (in words) [2]	cell-killing effect (in words) [3]	cell-killing effect (in words) [4]
COc1cc2c(Oc3ccc(NC(=O)c4c5c(cn(-c6ccc(F)cc6)c4=O)CCO5)cc3F)ccnc2cc1NC(C)=O [Example 184, N-(4-((7-Acetamido-6-methoxyquinolin-4-yl)oxy)-3-fluorophenyl)-5-(4-fluorophenyl)-6-oxo-2,3,5,6-tetrahydrofuro[3,2-c]pyridine-7-carboxamide]	2	0.92	7.9	23.2	5	29.8	13.8	54.2			
COc1cc2nccc(Oc3ccc(NC(=O)c4c5c(cn(-c6ccc(F)cc6)c4=O)CCO5)cc3F)c2cc1NCCN1CCOCC1 [Example 185, N-(3-Fluoro-4-((7-methoxy-6-((2-morpholinoethyl)amino)quinolin-4-yl)oxy)phenyl)-5-(4-fluorophenyl)-6-oxo-2,3,5,6-tetrahydrofuro[3,2-c]pyridine-7-carboxamide]	1	4.67	5.1	32.4	28.1	70.2	32.5	63.8	high cell-killing effect	high cell-killing effect	high cell-killing effect
COc1cc2nccc(Oc3ccc(NC(=O)c4c5c(cn(-c6ccc(F)cc6)c4=O)CCO5)cc3F)c2cc1NC(C)=O [Example 52, N-(4-((6-Acetamido-7-methoxyquinolin-4-yl)oxy)-3-fluorophenyl)-5-(4-fluorophenyl)-6-oxo-2,3,5,6-tetrahydrofuro[3,2-c]pyridine-7-carboxamide]	1	1.83	10.5	16.1	13.6	81.8	10.1	24.7			
CCOc1ccn(-c2ccc(F)cc2)c(=O)c1C(=O)Nc1ccc(Oc2ccnc(N)c2Cl)c(F)c1 [Positive control, N-(4-(2-amino-3-chloropyridin-4-yloxy)-3-fluorophenyl)-4-ethoxy-1-(4-fluorophenyl)-2-oxo-1,2-dihydropyridine-3-carboxamide, reference compound]	133		10.4	16.1	3.46	9.28	9.94	12.8			
COc1cc2c(Oc3ccc(NC(=O)c4c5c(cn(-c6ccc(F)cc6)c4=O)CCO5)cc3F)ccnc2cc1OCCN1CC(F)(F)C1 [Example 124, N-(4-((7-(2-(3,3-difluoroazetidin-1-yl)ethoxy)-6-methoxyquinolin-4-yl)oxy)-3-fluorophenyl)-5-(4-fluorophenyl)-6-oxo-2,3,5,6-tetrahydrofuro[3,2-c]pyridine-7-carboxamide]	5		15.7	62.1	6.2	98.7	16.3	57.3			
COc1cc2c(Oc3ccc(NC(=O)c4c5c(cn(-c6ccc(F)cc6)c4=O)CCO5)cc3F)ccnc2cc1NCCCN1CCOCC1 [Example 188, N-(3-Fluoro-4-((6-methoxy-7-((3-morpholinopropyl)amino)quinolin-4-yl)oxy)phenyl)-5-(4-fluorophenyl)-6-oxo-2,3,5,6-tetrahydrofuro[3,2-c]pyridine-7-carboxamide]	8	3.23	28.7	94.4	26.9	31.6	25.4	57.3	high cell-killing effect	high cell-killing effect	high cell-killing effect
COc1cc2c(Oc3ccc(NC(=O)c4c5c(cn(-c6ccc(F)cc6)c4=O)CCO5)cc3F)ccnc2cc1N [Example 181, N-(4-((7-Amino-6-methoxyquinolin-4-yl)oxy)-3-fluorophenyl)-5-(4-fluorophenyl)-6-oxo-2,3,5,6-tetrahydrofuro[3,2-c]pyridine-7-carboxamide]	2	5.92	10.2	99.1	11.3	35	14.6	36.8			
O=C(Nc1ccc(Oc2ccnc3cc(OCCCN4CCOCC4)ccc23)c(F)c1)c1c2c(cn(-c3ccc(F)cc3)c1=O)CCO2 [Example 158, N-(3-Fluoro-4-((7-(3-morpholinopropoxy)quinolin-4-yl)oxy)phenyl)-5-(4-fluorophenyl)-6-oxo-2,3,5,6-tetrahydrofuro[3,2-c]pyridine-7-carboxamide]	5	1.99	15.2	30.9	11.6	92.3	24.1	37.1			
COc1cc2c(Oc3ccc(NC(=O)c4c5c(cn(-c6ccc(F)cc6)c4=O)CCO5)cc3F)ccnc2cc1NCCN1CCOCC1 [Example 187, N-(3-Fluoro-4-((6-methoxy-7-((2-morpholinoethyl)amino)quinolin-4-yl)oxy)phenyl)-5-(4-fluorophenyl)-6-oxo-2,3,5,6-tetrahydrofuro[3,2-c]pyridine-7-carboxamide]	6	3.86	8.4	34.3	23.9	50.5	20.4	60	high cell-killing effect	high cell-killing effect	high cell-killing effect
Cn1cnc(-c2cc3nccc(Oc4ccc(NC(=O)c5c6c(cn(-c7ccc(F)cc7)c5=O)CCO6)cc4F)c3s2)c1 [Example 8, N-(3-Fluoro-4-((2-(1-methyl-1H-imidazol-4-yl)thieno[3,2-b]pyridin-7-yl)oxy)phenyl)-5-(4-fluorophenyl)-6-oxo-2,3,5,6-tetrahydrofuro[3,2-c]pyridine-7-carboxamide]	0.3	0.66	4.88	16.8	5.98	7.83	32.4	46.9			
COc1cc2c(Oc3ccc(NC(=O)c4c5c(cn(-c6ccc(F)cc6)c4=O)CCO5)cc3F)ccnc2cc1OCCCN1CCOCC1 [Example 76, N-(3-Fluoro-4-((6-methoxy-7-(3-morpholinopropoxy)quinolin-4-yl)oxy)phenyl)-5-(4-fluorophenyl)-6-oxo-2,3,5,6-tetrahydrofuro[3,2-c]pyridine-7-carboxamide]	4	1.79	21.9	28.6	46.4	67.8	35.7	38.3	high cell-killing effect	high cell-killing effect	high cell-killing effect
